Measurements: patent US9394371B2, “Antibody-mediated disruption of quorum sensing in bacteria” (The Scripps Research Institute, priority 2007, dated 2016)

Tested on: S. aureus RN4850
Format: cell-based

## YSTCYFIM (SEQ ID NO: 123) (thiolactone cyclisation; listed as Staphylococcus aureus) [AIP-4, native S. aureus group IV autoinducing peptide, synthesized, reference compound]
  α-hemolysin expression after adding synthetic AIP-4 to AP4-24H11: fully restored expression of α-hemolysin
